# Source: patent publication US20220296595A1, “CDK INHIBITORS” (QILU REGOR THERAPEUTICS INC., priority 2019, published 2022)
# pIC50: −log10 of the molar value.
# System: phosphorylation of Retinoblastoma Protein (pRb Ser807/811 or Ser780) in T47D cells
# Experiment: Inhibition of phosphorylation of retinoblastoma protein (pRb) in T47D cell (ELISA)
# Assay type: cell-based, human
# Conditions: Homo sapiens, T47D, read-out: Phospho T47D Ser807 IC50, pRb Ser807 phosphorylation, T47D cells
# Experimental: T47D breast cancer cells from American Type Culture Collection (ATCC, HTB-133) were plated at 40,000 cells/well in 96-well plates, and were incubated in RPMI 1640 medium (Gibco, 31800105) with 10% Fetal Bovine Serum (FBS, Biowest, FB-1058). Cells were then allowed to adhere overnight at 37° C., 5% CO2. The following day, compounds were titrated in a 3-fold dilution scheme, and the highest compound concentration tested was […]. After 24 hours incubation with compounds, cells were lysed in ice-cold lysis buffer containing phosphatase inhibitor cocktail and 1 mM PMSF. Cell lysates (50 μL/well) were then transferred to ELISA plates (pRb Ser807/811 ELISA kit, Cell Signaling, 13152 or pRb Ser780 ELISA kit, Cell Signaling, 13016)). Plates were incubated overnight at 4° C., with constant slow speed shaking. After incubation, plates were washed following manufacturer's recommendations, and then 100 μL reconstituted detection antibody was added to each well and incubated for 1 hour at 37° C. After incubation, plates were washed, and then 100 μL reconstituted HRP-linked secondary antibody was added to each well and incubated for 30 mins at 37° C. After incubation, plates were washed. Then, 100 μL TMB substrate was added to each well and incubated for 10 min at 37° C. or 30 min at 25° C. Finally, 100 μL of STOP solution was added to each well and mixed gently for a few seconds. Plates were read on the Envision plate reader (PerkinElmer, 2104-0010) using the 96-well […] mode. IC50 values were calculated using 4 parameter sigmoidal dose-response model of Xlfit5/GraphPad Prism 5 software.
row,Compound,pIC50
1,COc1nc(-c2ccnc(Nc3ccc(N4CCNCC4=O)cc3F)n2)cc2c1ncn2C(C)C [compound 114],6.30 to 7.00
2,CC(C)n1cnc2c(F)nc(-c3ccnc(Nc4ccc(N5CCCNC5=O)cn4)n3)cc21 [compound 275],> 7.00
3,CC(C)c1cnn2ccc(-c3ccnc(Nc4ccc(C(=O)N5CCC5)cc4)n3)cc12 [compound 169],> 7.00
4,COc1nc(-c2ccnc(Nc3ccc(N4CCC(C)(N)CC4=O)cn3)n2)cc2c1ncn2C(C)C (stereo not drawn) [compound 313],> 7.00
5,CC(C)c1cnn2c(C#N)cc(-c3ccnc(Nc4ccc(N5CCNCC5=O)cn4)n3)cc12 [compound 38],6.00 to 6.30
6,COc1nc(-c2nc(Nc3ccc(N4CCN(C5CCOCC5)CC4=O)cn3)ncc2F)cc2c1nc(C)n2C(C)C [compound 136],6.30 to 7.00
7,CC(C)c1cnn2ccc(-c3ccnc(Nc4ccn(CC5CCNCC5)n4)n3)cc12 [compound 32],6.30 to 7.00
8,COc1nc(-c2ccnc(Nc3ccc(CN4CCC(F)(F)C4)cn3)n2)cc2c1ncn2C(C)C [compound 69],6.30 to 7.00
9,CC(C)n1cnc2c(F)nc(-c3ccnc(Nc4ccc(N5CCC(C)(N)CC5=O)cn4)n3)cc21 (stereo not drawn) [compound 271],> 7.00
10,CC(C)c1cnn2ccc(-c3ccnc(Nc4ccn(CC5CCN(C(=O)CC#N)CC5)n4)n3)cc12 [compound 56],6.30 to 7.00
11,CCN1CCN(c2ccc(Nc3nccc(N4CCc5ncn(C(C)C)c5C4)n3)nc2)C(=O)C1 [compound 241],> 7.00
12,COc1nc(-c2ccnc(Nc3ccc(N4CCOCC4)cn3)n2)cc2c1ncn2C(C)C [compound 66],6.30 to 7.00
13,CC(C)c1cnn2ccc(-c3ccnc(Nc4ccc(N5CCNCC5=O)nc4)n3)cc12 [compound 227],> 7.00
14,CC(C)n1cnc2c1CN(c1ccnc(Nc3ccc(N4CCC(N5CC(F)C5)CC4=O)cn3)n1)CC2 (stereo not drawn) [compound 243],6.30 to 7.00
15,CC1(C)COc2c(F)cc(-c3ccnc(Nc4ccc(N5CCCNC5=O)cn4)n3)cc21 [compound 262],> 7.00
16,CC(C)c1cnn2ccc(-c3ccnc(Nc4cnn(CC5CCNCC5)c4)n3)cc12 [compound 36],6.30 to 7.00

# Target: T1, CDK2/CyclinE1 (Homo sapiens, UniProt P24941)
# T1 construct: purchased SignalChem C29-18G
# Experiment: Assay for inhibition of CDK2/CyclinE1 (Caliper microfluidic kinase assay)
# Assay type: biochemical
# Conditions: CDK2/CyclinE1, 100 μM ATP; read-out: CDK2 IC50
# Method in brief: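 IC50 came from 4-parameter fits of substrate-to-product conversion, separated on a Caliper chip after an EDTA stop. Reactions ran 3 hours at room temperature with 100 μM ATP, 5 μM fluorescent FL-18 peptide and 5 nM enzyme in 100 mM HEPES pH 7.5, 10 mM MgCl2.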
row,Compound,pIC50
1,COc1nc(-c2ccnc(Nc3ccc(N4CCNCC4=O)cc3F)n2)cc2c1ncn2C(C)C [compound 114],7.00 to 8.00
2,CC(C)n1cnc2c(F)nc(-c3ccnc(Nc4ccc(N5CCCNC5=O)cn4)n3)cc21 [compound 275],6.00 to 7.00
3,CC(C)c1cnn2ccc(-c3ccnc(Nc4ccc(C(=O)N5CCC5)cc4)n3)cc12 [compound 169],> 8.00
4,CC(C)c1cnn2c(C#N)cc(-c3ccnc(Nc4ccc(N5CCNCC5=O)cn4)n3)cc12 [compound 38],< 6.00
5,COc1nc(-c2nc(Nc3ccc(N4CCN(C5CCOCC5)CC4=O)cn3)ncc2F)cc2c1nc(C)n2C(C)C [compound 136],< 6.00
6,CC(C)c1cnn2ccc(-c3ccnc(Nc4ccn(CC5CCNCC5)n4)n3)cc12 [compound 32],< 6.00
7,CC(C)n1cnc2c(F)nc(-c3ccnc(Nc4ccc(N5CCC(C)(N)CC5=O)cn4)n3)cc21 (stereo not drawn) [compound 271],7.00 to 8.00
8,CC(C)c1cnn2ccc(-c3ccnc(Nc4ccn(CC5CCN(C(=O)CC#N)CC5)n4)n3)cc12 [compound 56],< 6.00
9,CCN1CCN(c2ccc(Nc3nccc(N4CCc5ncn(C(C)C)c5C4)n3)nc2)C(=O)C1 [compound 241],6.00 to 7.00
10,CC(C)c1cnn2ccc(-c3ccnc(Nc4ccc(N5CCNCC5=O)nc4)n3)cc12 [compound 227],> 8.00
11,CC(C)n1cnc2c1CN(c1ccnc(Nc3ccc(N4CCC(N5CC(F)C5)CC4=O)cn3)n1)CC2 (stereo not drawn) [compound 243],7.00 to 8.00
12,CC1(C)COc2c(F)cc(-c3ccnc(Nc4ccc(N5CCCNC5=O)cn4)n3)cc21 [compound 262],6.00 to 7.00
13,CC(C)c1cnn2ccc(-c3ccnc(Nc4cnn(CC5CCNCC5)c4)n3)cc12 [compound 36],7.00 to 8.00

# Same assay, conditions: CDK2/CyclinE1; read-out: CDK2 IC50
row,Compound,pIC50
1,COc1nc(-c2ccnc(Nc3ccc(N4CCC(C)(N)CC4=O)cn3)n2)cc2c1ncn2C(C)C (stereo not drawn) [compound 313],6.00 to 7.00
2,COc1nc(-c2ccnc(Nc3ccc(CN4CCC(F)(F)C4)cn3)n2)cc2c1ncn2C(C)C [compound 69],< 6.00
3,COc1nc(-c2ccnc(Nc3ccc(N4CCOCC4)cn3)n2)cc2c1ncn2C(C)C [compound 66],< 6.00

# System: T47D breast cancer cells
# Experiment: Anti-proliferation assay in T47D cell (Cyquant, day 6)
# Assay type: cell-based, human
# Conditions: Homo sapiens, T47D, anti-proliferation, T47D cells; read-out: T47D IC50
# Method in brief: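 A ten-point, 3-fold compound series (10 μM down to 0.51 nM) was applied to overnight-settled cells in 10% FBS RPMI 1640, and DNA content was read by CyQuant fluorescence 6 days later. An untreated plate read before dosing served as baseline for subtraction before IC50 fitting.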
row,Compound,pIC50
1,CC(C)c1cnn2c(C#N)cc(-c3ccnc(Nc4ccc(N5CCNCC5=O)cn4)n3)cc12 [compound 38],< 6.00
2,CC(C)c1cnn2ccc(-c3ccnc(Nc4ccn(CC5CCNCC5)n4)n3)cc12 [compound 32],6.30 to 7.00
3,COc1nc(-c2ccnc(Nc3ccc(CN4CCC(F)(F)C4)cn3)n2)cc2c1ncn2C(C)C [compound 69],6.30 to 7.00
4,CCN1CCN(c2ccc(Nc3nccc(N4CCc5ncn(C(C)C)c5C4)n3)nc2)C(=O)C1 [compound 241],6.30 to 7.00
5,COc1nc(-c2ccnc(Nc3ccc(N4CCOCC4)cn3)n2)cc2c1ncn2C(C)C [compound 66],6.30 to 7.00
6,CC(C)c1cnn2ccc(-c3ccnc(Nc4ccc(N5CCNCC5=O)nc4)n3)cc12 [compound 227],> 7.00
7,CC(C)n1cnc2c1CN(c1ccnc(Nc3ccc(N4CCC(N5CC(F)C5)CC4=O)cn3)n1)CC2 (stereo not drawn) [compound 243],6.00 to 6.30
8,CC1(C)COc2c(F)cc(-c3ccnc(Nc4ccc(N5CCCNC5=O)cn4)n3)cc21 [compound 262],> 7.00
9,CC(C)c1cnn2ccc(-c3ccnc(Nc4cnn(CC5CCNCC5)c4)n3)cc12 [compound 36],6.30 to 7.00

# Target: T2, CDK4/CyclinD1 (Homo sapiens, UniProt P11802)
# T2 construct: purchased Thermofisher PR8064A
# Experiment: Assay for inhibition of CDK4/CyclinD1 (Caliper microfluidic kinase assay)
# Assay type: biochemical
# Conditions: CDK4/CyclinD1
# Method in brief: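 IC50 was obtained by 4-parameter sigmoidal fitting after 1 nM CDK4/CyclinD1, 200 μM ATP and 1 μM FL-34 substrate reacted for 3 h at room temperature (pH 7.5 HEPES, 10 mM MgCl2). After EDTA quench, substrate and product were separated and detected on a Caliper microfluidic chip.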
# T2 sequence (P11802 whole entry): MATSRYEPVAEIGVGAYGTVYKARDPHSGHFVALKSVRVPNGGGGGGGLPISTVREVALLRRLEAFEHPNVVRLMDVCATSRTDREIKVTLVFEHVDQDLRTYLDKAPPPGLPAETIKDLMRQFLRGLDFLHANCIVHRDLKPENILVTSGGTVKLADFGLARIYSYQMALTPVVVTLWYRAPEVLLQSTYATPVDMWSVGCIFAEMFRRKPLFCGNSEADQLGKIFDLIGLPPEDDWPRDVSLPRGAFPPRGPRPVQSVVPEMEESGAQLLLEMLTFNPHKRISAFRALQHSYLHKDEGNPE
# T2 sequence (P24385 whole entry partner): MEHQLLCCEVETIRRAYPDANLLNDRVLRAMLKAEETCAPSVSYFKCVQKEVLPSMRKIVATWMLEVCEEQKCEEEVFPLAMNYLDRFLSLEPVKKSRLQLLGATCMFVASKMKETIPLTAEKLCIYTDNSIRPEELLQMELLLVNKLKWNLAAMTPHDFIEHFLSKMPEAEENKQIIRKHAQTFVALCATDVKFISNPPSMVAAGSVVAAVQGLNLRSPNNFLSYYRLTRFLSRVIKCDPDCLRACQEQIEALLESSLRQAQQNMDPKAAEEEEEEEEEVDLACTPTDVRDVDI
row,Compound,pIC50
1,COc1nc(-c2ccnc(Nc3ccc(N4CCC(C)(N)CC4=O)cn3)n2)cc2c1ncn2C(C)C (stereo not drawn) [compound 313],7.00 to 8.00
2,COc1nc(-c2ccnc(Nc3ccc(CN4CCC(F)(F)C4)cn3)n2)cc2c1ncn2C(C)C [compound 69],7.00 to 8.00
3,COc1nc(-c2ccnc(Nc3ccc(N4CCOCC4)cn3)n2)cc2c1ncn2C(C)C [compound 66],> 8.00

# Same assay, conditions: CDK4/CyclinD1, 200 μM ATP
row,Compound,pIC50
1,COc1nc(-c2ccnc(Nc3ccc(N4CCNCC4=O)cc3F)n2)cc2c1ncn2C(C)C [compound 114],> 8.00
2,CC(C)n1cnc2c(F)nc(-c3ccnc(Nc4ccc(N5CCCNC5=O)cn4)n3)cc21 [compound 275],> 8.00
3,CC(C)c1cnn2ccc(-c3ccnc(Nc4ccc(C(=O)N5CCC5)cc4)n3)cc12 [compound 169],> 8.00
4,CC(C)c1cnn2c(C#N)cc(-c3ccnc(Nc4ccc(N5CCNCC5=O)cn4)n3)cc12 [compound 38],7.00 to 8.00
5,COc1nc(-c2nc(Nc3ccc(N4CCN(C5CCOCC5)CC4=O)cn3)ncc2F)cc2c1nc(C)n2C(C)C [compound 136],> 8.00
6,CC(C)c1cnn2ccc(-c3ccnc(Nc4ccn(CC5CCNCC5)n4)n3)cc12 [compound 32],7.00 to 8.00
7,CC(C)n1cnc2c(F)nc(-c3ccnc(Nc4ccc(N5CCC(C)(N)CC5=O)cn4)n3)cc21 (stereo not drawn) [compound 271],> 8.00
8,CC(C)c1cnn2ccc(-c3ccnc(Nc4ccn(CC5CCN(C(=O)CC#N)CC5)n4)n3)cc12 [compound 56],7.00 to 8.00
9,CCN1CCN(c2ccc(Nc3nccc(N4CCc5ncn(C(C)C)c5C4)n3)nc2)C(=O)C1 [compound 241],7.00 to 8.00
10,CC(C)c1cnn2ccc(-c3ccnc(Nc4ccc(N5CCNCC5=O)nc4)n3)cc12 [compound 227],> 8.00
11,CC(C)n1cnc2c1CN(c1ccnc(Nc3ccc(N4CCC(N5CC(F)C5)CC4=O)cn3)n1)CC2 (stereo not drawn) [compound 243],7.00 to 8.00
12,CC1(C)COc2c(F)cc(-c3ccnc(Nc4ccc(N5CCCNC5=O)cn4)n3)cc21 [compound 262],> 8.00
13,CC(C)c1cnn2ccc(-c3ccnc(Nc4cnn(CC5CCNCC5)c4)n3)cc12 [compound 36],7.00 to 8.00

# Target: T3, CDK6/CyclinD3 (Homo sapiens, UniProt Q00534)
# T3 construct: purchased Carna 04-107
# Experiment: Assay for inhibition of CDK6/CyclinD3 (Caliper microfluidic kinase assay)
# Assay type: biochemical
# Conditions: CDK6/CyclinD3
# Experimental: The CDK6 enzyme assay for IC50 determination was performed as follows. Microfluidic kinase detection technology (Caliper) was used to monitor the phosphorylation of peptide substrate by CDK6/CyclinD3. The total reaction volume is 15 μL containing buffer A (100 mM HEPES (pH 7.5), 0.1% BSA, 0.01% Triton X-100, 1 mM DTT, 10 mM MgCl2, 10 μM Sodium Orthovanadate, 10 μM Beta-Glycerophosphate), 300 μM ATP, 2 nM CDK6/CyclinD3 (Carna, 04-107), 1 μM FL-34 (5-FAM-[…]), and the test compound at appropriate dilutions in DMSO. All components were added to the 384-well plate (Corning, 4514), and incubated at Room Temperature for 3 hours. The reaction was terminated by addition of 15 μL Stop Buffer (180 mM HEPES (pH 7.5), 20 mM EDTA, Coating-3 reagent (PerkinElmer, 760050)). The plate was then loaded on Caliper EZ Reader (EZ Reader II, PerkinElmer, HD-4HYSG2772), and the reaction mixtures including substrate and product were sipped into the microfluidic chip for separation and detection. The IC50 values of the test compound were determined by fitting the inhibition curves by 4 parameter sigmoidal dose-response model using the Xlfit5/GraphPad Prism 5 software.
# T3 sequence (Q00534 whole entry): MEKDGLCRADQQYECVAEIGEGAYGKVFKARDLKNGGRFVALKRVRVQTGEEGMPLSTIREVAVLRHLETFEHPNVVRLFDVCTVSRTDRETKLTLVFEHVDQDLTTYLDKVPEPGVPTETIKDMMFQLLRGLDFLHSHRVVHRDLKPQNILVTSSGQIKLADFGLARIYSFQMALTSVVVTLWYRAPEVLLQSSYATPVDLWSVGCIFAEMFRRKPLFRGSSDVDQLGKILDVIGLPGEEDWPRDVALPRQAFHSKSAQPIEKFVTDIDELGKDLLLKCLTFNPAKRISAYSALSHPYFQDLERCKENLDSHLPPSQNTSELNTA
# T3 sequence (P30281 whole entry partner): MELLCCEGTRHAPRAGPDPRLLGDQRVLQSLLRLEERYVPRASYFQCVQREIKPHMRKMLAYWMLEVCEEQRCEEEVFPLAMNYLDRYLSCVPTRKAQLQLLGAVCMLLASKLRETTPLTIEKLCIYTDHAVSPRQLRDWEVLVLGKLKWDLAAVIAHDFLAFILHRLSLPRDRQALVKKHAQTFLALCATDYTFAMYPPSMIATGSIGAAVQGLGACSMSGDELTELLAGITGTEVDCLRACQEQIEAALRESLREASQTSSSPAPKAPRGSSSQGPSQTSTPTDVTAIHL
row,Compound,pIC50
1,COc1nc(-c2ccnc(Nc3ccc(N4CCC(C)(N)CC4=O)cn3)n2)cc2c1ncn2C(C)C (stereo not drawn) [compound 313],> 8.00

# Same assay, conditions: CDK6/CyclinD3, 300 μM ATP
row,Compound,pIC50
1,COc1nc(-c2ccnc(Nc3ccc(N4CCNCC4=O)cc3F)n2)cc2c1ncn2C(C)C [compound 114],7.00 to 8.00
2,CC(C)n1cnc2c(F)nc(-c3ccnc(Nc4ccc(N5CCCNC5=O)cn4)n3)cc21 [compound 275],> 8.00
3,CC(C)c1cnn2ccc(-c3ccnc(Nc4ccc(C(=O)N5CCC5)cc4)n3)cc12 [compound 169],7.00 to 8.00
4,COc1nc(-c2nc(Nc3ccc(N4CCN(C5CCOCC5)CC4=O)cn3)ncc2F)cc2c1nc(C)n2C(C)C [compound 136],7.00 to 8.00
5,CC(C)n1cnc2c(F)nc(-c3ccnc(Nc4ccc(N5CCC(C)(N)CC5=O)cn4)n3)cc21 (stereo not drawn) [compound 271],> 8.00
